Each block holds one compound with its values, some of them ahead of it.
What was measured:
HepG2 [1] = assay: MTT cytotoxicity assay, HepG2; format: cell-based, human; settings: for inhibitive ratio: HepG2, 20 μmol/L, 48 h; for IC50: HepG2, 48 h, MTT
Experimental: (§1) The in vitro cytotoxicity of OD, 1–3 and the corresponding metal salts were determined by MTT assay towards a panel of human tumor cells including HepG2, T-24, BEL-7404, MGC80-3, SK-OV-3/DDP and normal HL-7702 cells. As the positive control, cisplatin was dissolved at a concentration of 1 mM in 0.154 M NaCl[32].
(§2) The human tumor cell lines (BEL-7404, HepG2, MGC80–3, T-24, SK-OV-3/DDP and HeLa cells) and the human normal liver cell line HL-7702 were obtained from Shanghai Cell Bank in Chinese Academy of Sciences. Cells were cultured in Dulbecco’s modified Eagle’s medium (DMEM) or RPMI-1640 medium, which supplemented with 10% fetal bovine serum (FBS) and 100 U/mL penicillin and streptomycin. Cells were cultured at 37 °C in a humidified atmosphere with 5% CO2/95% air. Tested compounds (2.0 mM) were prepared as DMSO stock solution before they were diluted to working concentrations by PBS buffer (containing 0.5% DMSO), while cisplatin dissolved in 0.9% sodium chloride solution was used as positive controls.
(§3) Cells in their logarithmic phase were seeded in 96-well plates with 5.5 × 10^3/180 μL per well for 24 h. Then 20 μL of compounds at various concentrations were added to each well to achieve final concentrations of 1.25, 2.5, 5.0, 10.0, and 20.0 μM. All the cells were incubated with test compounds for another 48 h before MTT assay. Control wells contained media with 0.5% DMSO. After 48 h of cultivation, 10 μL of MTT (5 mg/mL in PBS) was added to each well, and cells were incubated at 37 °C for 6 h. The contents in the wells were pipetted out carefully, and the formazan crystals formed were dissolved in 100 μL of DMSO, and the absorbance was measured by enzyme labeling instrument with 490 nm/630 nm double wavelength measurement. The IC50 value was defined as a drug concentration killing 50% cells in comparison with untreated controls, which was calculated by the Bliss method (n = 5). All tests were repeated in at least three independent trials.

T-24 = assay: MTT cytotoxicity assay, T-24; format: cell-based, human; settings: for inhibitive ratio: T-24, 20 μmol/L, 48 h; for IC50: T-24, 48 h, MTT
Experimental: as §1, §2, §3

BEL-7404 = assay: MTT cytotoxicity assay, BEL-7404; format: cell-based, human; settings: for inhibitive ratio: BEL-7404, 20 μmol/L, 48 h; for IC50: BEL-7404, 48 h, MTT
Experimental: as §1, §2, §3

MGC80-3 = assay: MTT cytotoxicity assay, MGC80-3; format: cell-based, human; settings: for inhibitive ratio: MGC80-3, 20 μmol/L, 48 h; for IC50: MGC80-3, 48 h, MTT
Experimental: as §1, §2, §3

SK-OV-3/DDP = assay: MTT cytotoxicity assay, SK-OV-3/DDP; format: cell-based, human; settings: 48 h; for inhibitive ratio: SKOV-3/DDP, 20 μmol/L; for IC50: SK-OV-3/DDP, MTT
Experimental: as §1, §2, §3

HL-7702 = assay: MTT cytotoxicity assay, normal liver cells HL-7702; format: cell-based, human; settings: 48 h; for inhibitive ratio: HL-7702, 20 μmol/L; for IC50: HL-7702 normal liver cells, MTT
Experimental: as §1, §2, §3

HepG2 xenograft = HepG2 xenograft nude mice model, tumor growth inhibition; format: in vivo, BALB/c nude mice; settings: 2.0 mg/kg ip every two days
Experimental: BALB/c nude mice (male, 17–20 g, 5–6 weeks old) were supplied by Guangxi Medical University Laboratory Animal Centre (Guangxi, China, approval no. SCXK 2014–0002 and SYXK 2014–0003). All of the experimental procedures were carried out according to the NIH Guidelines for the Care and Use of Laboratory Animals. Animal experiments were approved by the Animal Care and Use Committee of Guangxi Medical University. Animal were housed at IVC system (individual ventilated caging) with conditions of constant photoperiod (12 h light/12 h dark at 25−28 °C and 45−65% humidity). The xenograft tumor model was established in the same way as we reported before[30]. The maximum solubility of 3 in DMSO/saline solvent (v/v, 5/100) with administration volume 0.8 mL/20 g was used as the high dose (6.0 mg/kg) group (n = 6). Meanwhile low dose group mice got 3.0 mg/kg, intraperitoneal injection every day, and the control group received corresponding solvent. The positive control group was administered with cisplatin at 2.0 mg/kg every two days by intraperitoneal injection (cisplatin dissolved in saline).
The tumor volumes and body weight were measured every 3 days, and tumor size was calculated as volume = (w^2l)/2, where w is the width and l is the length in mm of tumor[70]. On day 21, the mice were sacrificed, and the tumor tissue was dissected out and weighted. The in vivo antitumor activity is evaluated by two indicators[71][72]: the tumor relative increment rate (T/C = TRTV/CRTV × 100%) and tumor weight inhibition rate [IR = (Wc − Wt)/Wc × 100%,], where TRTV and CRTV were the RTV of treated group and control group, respectively (RTV: relative tumor volume, RTV = Vt /V0); Wt and Wc are the average tumor weight of complex-treated and vehicle controlled group, respectively.

[2] = Body weight of mice in the HepG2 xenograft model; format: in vivo, BALB/c nude mice; settings: 2.0 mg/kg ip every two days; permissible value 20%
Experimental: To further evaluate the in vivo antitumor efficacy of these complexes, 3 was selected to inhibit tumor growth in a HepG2 xenografts model. The mice were randomized into control group, 3-treated groups and positive control group (n = 6). Once the tumor had grown to an average volume of about 100 mm^3, two group of nude mice were injected intraperitoneally (ip) of 3 at a high dose (6.0 mg/kg) and a low (3.0 mg/kg) dose daily for 20 days, respectively. Cisplatin was used as positive control injected at 2.0 mg/kg every two days, while control group received solvents only.
BALB/c nude mice (male, 17–20 g, 5–6 weeks old) were supplied by Guangxi Medical University Laboratory Animal Centre (Guangxi, China, approval no. SCXK 2014–0002 and SYXK 2014–0003). All of the experimental procedures were carried out according to the NIH Guidelines for the Care and Use of Laboratory Animals. Animal experiments were approved by the Animal Care and Use Committee of Guangxi Medical University. Animal were housed at IVC system (individual ventilated caging) with conditions of constant photoperiod (12 h light/12 h dark at 25−28 °C and 45−65% humidity). The xenograft tumor model was established in the same way as we reported before. […]
The tumor volumes and body weight were measured every 3 days, and tumor size was calculated as volume = (w^2l)/2, where w is the width and l is the length in mm of tumor[70]. […]

HepG2 cells = assay: Comet assay for DNA damage; format: cell-based, human; design: unit not given here; settings: HepG2, 1.0 μM, 24 h
Experimental: After the observation of significant S-phase arrest caused by 1–3, the study of DNA damage assay is necessary. The single cell gel electrophoresis technique (comet assay) is a simple, sensitive, reliable, and rapid method to detect DNA damage in eukaryotic cell[39]. As shown in Table 3 and Fig. 6, 1–3 at 1.0 μM induced DNA damage (fragmentation or unwinding) appeared as fluorescent comets with remarkable increase of tails size, especially for 3.
The comet assay is a simple method for measuring DNA strand breaks in cells. The comet assay reagent kit was purchased from Trevigen, and the experiment was carried out according to the manufacturer’s instructions. After treatment with OD and 1–3 at 1.0 μM, HepG2 cells were harvested and suspended at 1 × 10^6 Hep-G2 cells/mL in PBS. The cells suspension was mixed with melted LM agarose at a ratio of 1:10 (v/v). An aliquot (75 μL) of the mixture was immediately pipetted onto the slide (Comet Slide TM). After refrigeration for 30 min, the slide was immersed in pre-chilled lysis solution and left on ice for 60 min, followed by immersing in freshly prepared alkaline solution (300 mM NaOH, 1 mM EDTA, pH > 13) for 60 min on ice in darkness. After DNA unwinding, the slide was subjected to alkaline solution for electrophoresis in a Savant ps 250 system set at 300 mA and 1 volt/cm for 30 min. After electrophoresis, the slide was rinsed with distilled H2O, fixed in 70% ethanol for 5 min and air-dried overnight. DNA was stained with SYBR Green I (Trevigen) and visualized under a fluorescence microscope (Nikon, Eclipse E600).

HepG2 [3] = assay: Cell apoptosis assay by flow cytometry, Annexin V-FITC/PI; format: cell-based, human; settings: HepG2, 5.0 μM, 24 h
Experimental: The quantitative analysis of apoptotic HepG2 induced by 1–3 (1.0, 2.0 and 5.0 μM) and their corresponding metal salts (5.0 μM) after 24 h treatment, were investigated by flow cytometry and Annexin V-FITC/PI double staining. As depicted in Figs 7 and S6, 1–3 caused a significant increase in apoptotic cells comparing to the untreated cells.
Cell cycle progression and apoptosis were determined by flow cytometric analysis. (a) Cell cycle arrest assay: HepG2 cells in their logarithmic phase were plated into 50 mL plates at a final density of 5−6 × 10^6 cells/well overnight, then they were treated with various doses (0.25, 0.5 and 1.0 μM) of 1–3 for another 24 h. Cells were trypsinized, collected, and fixed in ice-cold 75% ethanol at −20 °C overnight. After centrifugation, the fixed cells were rinsed with ice-cold phosphate buffered saline (PBS), and resuspended in 0.5 mL of PBS containing 100 μg/mL RNase, 50 μg/mL propidium iodide (PI) in the dark for 5−10 min. The cell cycle distribution was analyzed by FACS Calibur flow cytometer (BD) and calculated using ModFIT LT software. (b) Apoptosis assay: 1 × 10^5 HepG2 cells were plated in 6-well plates, after incubation for 24 h with complexes 1–3 at 1.0, 2.0 and 5.0 μM, cells were collected, and Apoptosis Detection kit FITC Annexin V was used to analyze the cell apoptosis according to the manufacturer’s instructions.

caspase-3 = assay: Caspase-3 activation by flow cytometry (CaspGLOW); format: cell-based, human; settings: HepG2, 1.0 μM, 24 h; control 4.2%
Experimental: (§4) Caspase family is closely related to the cell apoptosis via the mitochondrial pathway, especially caspases-3, -8 and -9. To better understand the antitumor mechanisms, it needs to confirm whether caspase-3, -8 and -9 are activated when the tumor cells are treated with 1–3.
(§5) The measurement of caspase-3, -8 and -9’s activities was performed by CaspGLOW fluorescein active caspase-3, -8 and -9 staining kit. HepG2 cells were treated with 1 μM 1–3 for 24 h, harvested at a density of 1 × 10^6 cells/mL, and then suspended in 300 μL volume with PBS. To the suspension, 1 μL of caspase-3 inhibitor (FITC-DEVD-FMK), caspase-8 inhibitor (FITC-IETD-FMK) or caspase-9 inhibitor (FITC-LEHD-FMK) was consequently added and incubated for 1 h at 37 °C in 5% CO2 incubator. The cells were then examined by a FACSAria II flow cytometer equipped with a 488 nm argon laser. The results were represented as the percent change on the activity compared with the control.

caspase-8 = assay: Caspase-8 activation by flow cytometry (CaspGLOW); format: cell-based, human; settings: HepG2, 1.0 μM, 24 h; control 1.8%
Experimental: as §4, §5

caspase-9 = assay: Caspase-9 activation by flow cytometry (CaspGLOW); format: cell-based, human; settings: HepG2, 1.0 μM, 24 h; control 1.9%
Experimental: as §4, §5

Compound: [Ni+2].[O-][Cl+3]([O-])([O-])[O-].[O-][Cl+3]([O-])([O-])[O-] [Ni(ClO4)2, reference compound]
inhibitive ratio (HepG2 [1]): 32.57±0.29%
inhibitive ratio (T-24): 37.86±0.19%
inhibitive ratio (BEL-7404): 32.31±0.07%
inhibitive ratio (MGC80-3): 16.35±0.09%
inhibitive ratio (SK-OV-3/DDP): 11.25±0.12%
inhibitive ratio (HL-7702): 50.14±0.06%

Compound: N.N.[Cl][Pt][Cl] [cisplatin, reference compound]
inhibitive ratio (HepG2 [1]): 71.93±0.83%
IC50 (HepG2 [1]): 7.72 ± 0.83 µM
inhibitive ratio (T-24): 75.26±1.00%
IC50 (T-24): 7.48 ± 0.26 µM
inhibitive ratio (BEL-7404): 76.07±2.68%
IC50 (BEL-7404): 10 ± 0.53 µM
inhibitive ratio (MGC80-3): 65.58±0.09%
IC50 (MGC80-3): 16 ± 1.53 µM
IC50 (SK-OV-3/DDP): 66 ± 1.53 µM
inhibitive ratio (SK-OV-3/DDP): 15.13±0.07%
inhibitive ratio (HL-7702): 68.96±1.34%
IC50 (HL-7702): 5.18 ± 0.68 µM
IR (tumor weight inhibition rate) (HepG2 xenograft): 65.8%
drop in body weight [2]: 25.8%

Compound: [O-][Cl+3]([O-])([O-])[O-].[O-][Cl+3]([O-])([O-])[O-].[Zn+2] [Zn(ClO4)2, reference compound]
inhibitive ratio (HepG2 [1]): 30.94±0.39%
inhibitive ratio (T-24): 28.19±0.13%
inhibitive ratio (BEL-7404): 24.07±0.15%
inhibitive ratio (MGC80-3): 17.63±0.07%
inhibitive ratio (SK-OV-3/DDP): 12.33±0.05%
inhibitive ratio (HL-7702): 43.18±0.19%

Compound: [Co+2].[O-][Cl+3]([O-])([O-])[O-].[O-][Cl+3]([O-])([O-])[O-] [Co(ClO4)2, reference compound]
inhibitive ratio (HepG2 [1]): 32.87±0.13%
inhibitive ratio (T-24): 36.23±0.09%
inhibitive ratio (BEL-7404): 23.29±0.09%
inhibitive ratio (MGC80-3): 24.74±0.03%
inhibitive ratio (SK-OV-3/DDP): 21.74±0.03%
inhibitive ratio (HL-7702): 45.91±0187%

Compound: [Ni(OD)2(CH3OH)2](ClO4)2 [Complex 2]
inhibitive ratio (HepG2 [1]): 87.68 ±0.92%
IC50 (HepG2 [1]): 0.2 ± 0.09 µM
inhibitive ratio (T-24): 82.31±0.60%
IC50 (T-24): 0.23 ± 0.13 µM
inhibitive ratio (BEL-7404): 69.38±0.65%
IC50 (BEL-7404): 9.66 ± 0.35 µM
inhibitive ratio (MGC80-3): 71.86±0.28%
IC50 (MGC80-3): 2.86 ± 0.29 µM
IC50 (SK-OV-3/DDP): 0.18 ± 0.03 µM
inhibitive ratio (SK-OV-3/DDP): 84.44±0.65%
inhibitive ratio (HL-7702): 72.34±0.22%
IC50 (HL-7702): 5.35 ± 0.34 µM
Comet length (HepG2 cells): 99.56 ± 10.57
Olive tail moment (HepG2 cells): 20.56 ± 7.54
Tail length (HepG2 cells): 45.69 ± 8.27
Tail moment (HepG2 cells): 29.52 ± 8.66
population of apoptotic cells (HepG2 [3]): 26.1%
proportion of activated caspase-3 (caspase-3): 39.9%
proportion of activated caspase-8 (caspase-8): 36.7%
proportion of activated caspase-9 (caspase-9): 36.0%

proportion of activated caspase-3 (caspase-3): 45.1%
proportion of activated caspase-8 (caspase-8): 35.3%
proportion of activated caspase-9 (caspase-9): 27.7%
Compound: [Co(OD)2(H2O)2](ClO4)2 [Complex 1]
inhibitive ratio (HepG2 [1]): 88.34± 1.03%
IC50 (HepG2 [1]): 0.66 ± 0.11 µM
inhibitive ratio (T-24): 85.35±0.73%
IC50 (T-24): 0.45 ± 0.17 µM
inhibitive ratio (BEL-7404): 63.96±0.78%
IC50 (BEL-7404): 8.98 ± 0.15 µM
inhibitive ratio (MGC80-3): 61.54±0.33%
IC50 (MGC80-3): 1.38 ± 0.14 µM
IC50 (SK-OV-3/DDP): 0.26 ± 0.03 µM
inhibitive ratio (SK-OV-3/DDP): 78.17±1.69%
inhibitive ratio (HL-7702): 56.73±0.14%
IC50 (HL-7702): 8.11 ± 0.55 µM
Comet length (HepG2 cells): 65.45 ± 6.54
Olive tail moment (HepG2 cells): 3.67 ± 2.09
Tail length (HepG2 cells): 8.01 ± 4.98
Tail moment (HepG2 cells): 4.65 ± 1.34
population of apoptotic cells (HepG2 [3]): 33.1%
